Measurements taken from patent US8466118B2, “Modulation of blood brain barrier protein expression” (Saint Louis University, priority 2007, dated 2013).
Oligonucleotides are written 5' to 3', each unit as a sugar letter and its base; * is a phosphorothioate linkage, no mark a phosphodiester; rarer units and linkages stand in square brackets, end groups in braces. Plain capitals give the bases only. d = 2'-deoxy (DNA)

How the values were obtained:
[1] = test system: LRP-1; experiment: Immunohistochemistry of LRP-1 in isolated mouse brain microvessels (MBMs); format: cell-based; conditions: 10 μg/mL, 24 h, buffer = 100%
Excerpt: Isolation of mouse brain microvessels (MBMs): Mouse brain microvessels (MBMs) were isolated by a modification of a method of Gerhart et al (Brain Res Bull 21, 785-793, 1998). All glassware was pre-coated with phosphate buffered saline (PBS) supplemented with 1% BSA (1% BSA/PBS). This was done to minimize adhesion and to maximize recovery of microvessels. Briefly, ten to twelve cerebral cortices from adult male CD-1 mice were collected and the meninges removed. They were homogenized on ice in 5 mL of cold stock buffer (25 mM HEPES, 1% dextran and 1 envelope of Minimum Essential Medium (Invitrogen), pH 7.4). The homogenate was then filtered through a series of nylon mesh membranes (300 μm, then twice through 100 μm; Spectrum, Houston, Tex.), mixed with an equal volume of 40% dextran in stock buffer, and centrifuged at 3,000×g for 30 min at 4° C. […]
Immunohistochemistry of LRP-1 in isolated MBMs: Isolated MBMs were treated with either incubation buffer, random antisense, or antisense cocktail (10 μg/mL) in incubation buffer for 24 h. […] Fluorescence was detected with Zeiss Axiovert 40 CFL fluorescent microscope (Carl Zeiss, Inc., Thornwood, N.Y.). Images were obtained from 5-6 microvessels in each group and mean fluorescent intensity was quantified using Image J analysis software (National Institute of Health, USA).

[2] = biological target: T1, LRP-1 (Mus musculus, UniProt Q91ZX7); experiment: Recognition of a novel object after chronic icv infusion; format: in vivo; conditions: 2 wk icv infusion 100 ng/h
T1 construct: from tissue; host or cells: brain of living mice (iv, icv or chronic icv antisense)
Method: Recognition of a novel object: This method has been described previously(Jaeger et al., 2002). Briefly, recognition memory for a novel object was assessed in cocktail and random antisense treated animals (100 ng/h two week infusion). Prior to testing, mice were habituated for three consecutive days to the testing apparatus (a 58×66×11 cm white, plastic box). During habituation, each mouse was allowed to freely explore the testing apparatus for 5 min. On the first day of training, mice were placed in the testing apparatus for 5 min and allowed to explore a pair of identical objects (Objects A and B; both were 7×6.3×5.1 cm). On the second day of training, one of the original objects was replaced with a new, or novel, object (Object C; 8.2×3.8×7.4 cm). Mice were placed in the testing apparatus for 5 min and the amount of time each mouse spent sniffing or touching the novel object was recorded by an observer. Results from this study were expressed as the percent of time spent investigating the novel object.

[3] = biological target: T2, beta-F1 ATPase (Mus musculus, UniProt P56480); experiment: Brain perfusion uptake of I-PACAP27/I-PACAP38 after iv antisense; format: in vivo; conditions: single tail vein injection 24 h before study, 10 μg/mouse
T2 construct: from tissue; host or cells: brain / blood-brain barrier of living mice (CD-1; SAMP8 in the T-maze study)
Method: To test the effectiveness of PTS-6 antisenses after their intravenous administration, two month old male CD-1 mice kept on a 12/12 hour light/dark cycle with food and water freely available were given an injection by tail vein of 0.9% saline with or without 10 μg/mouse of each of the three antisenses. To determine the specificity of the PTS-6 antisense on I-PACAP27 efflux, three other antisenses were also injected iv. These were:
After 24 h, the mice were anesthetized with urethane and both jugular veins exposed. The thorax was opened, the descending thoracic aorta clamped, both jugular veins severed, and lactated Ringer's solution containing I-PACAP27 (250,000 cpm/ml) perfused through the left ventricle of the heart at the rate of 2 ml/min. ^131I-PACAP38 (hereafter referred to as I-PACAP38) was perfused in some mice treated with PTS-6 antisense. After 5 min, the perfusion was stopped and 20 ml of lactated Ringer's solution was infused through the left ventricle of the heart to wash out the vascular space of the brain. The level of radioactivity was determined in the brain and in an aliquot of the perfusion fluid and results expressed as the brain/perfusion ratio in units of μl/g.

[4] = biological target: T1, LRP-1; experiment: Brain efflux of I-Aβ42 after acute icv antisense; format: in vivo; conditions: 24 h after icv antisense, compared to saline
Excerpt: In vivo brain-to-blood efflux rate of icv antisense: A standard method was used to quantify brain-to-blood efflux rates (Banks et al., Neuroscience 121, 487-492, 2003; Jaeger et al., Proc Natl Acad Sci USA 102, 12495-12500, 2005). First, mice were anesthetized with an i.p. injection of 40% urethane. After the scalp was removed, a hole was made through the cranium (1.0 mm lateral and 0.5 mm posterior to bregma) with a 26-gauge needle. All of the needle except 2.5 to 3.0 mm of the tip was covered by PE-10 tubing. […] Injections were made into the lateral ventricle (icv) with a 1.0 μl Hamilton syringe.
For studies in which the -Slope is reported, this value was determined from a graph created with two time points (0 and 10 min) as described above. After the log of the mean % of the injected dose of radioactivity (amount detected/amount injected*100=% Inj Dose) in each brain was plotted against time (min), linear regression was used to create a line between the multiple values at these two points.
In some experiments, mice received two icv injections (antisense cocktail or saline icv and, at t=30 min or t=24 h, icv I-Aβ42). In these cases, the dose of antisense given was 200 ng/μl LR-BSA and the dose of I-Aβ42 given was 5×10^3 cpm/μl LR-BSA.
In the specificity experiment, mice received two icv injections. […]

[5] = test system: P-glycoprotein; conditions: intracranial introduction, rat; cited from earlier work
[6] = biological target: T1, LRP-1; experiment: Abluminal-to-luminal transport of I-Aβ42 in primary BMEC monolayers; format: cell-based; conditions: 1 μg/mL unlabeled Aβ42 in abluminal chamber
Method: Isolation of mouse brain microvascular endothelial cells (BMECs): BMECs were isolated using a modified method of Szabó et al. (Neurobiology 5, 1-16 (1997). In brief, cerebral cortices from 8-week-old CD-1 mice were isolated, cleaned of meninges, and minced. The homogenate was digested with collagenase type II (1 mg/mL) and DNase I (30 U/mL) in Dulbecco's Modified Eagle Media (DMEM) [containing 100 units/mL penicillin, 100 μg/mL streptomycin, 50 μg/mL gentamicin and 2 mM GlutaMAX-I (Invitrogen, Carlsbad, Calif.)] at 37° C. for 40 min. After digestion, 20% bovine serum albumin (BSA) dissolved in DMEM was added. The sample was then centrifuged at 1,000×g for 20 min, the supernatant containing the neurons and glial cells was removed, and the pellet containing the microvessels further digested at 37° C. for 30 min with collagenase/dispase at a concentration of 1 mg/mL (Roche, Mannheim, Germany) and DNase I (30 U/mL dissolved in DMEM). After the second enzyme digestion, we then layered the pellet on a 33% Percoll (Amersham Biosciences, Piscataway, N.J.) gradient and centrifuged at 1,000×g for 10 min to separate the microvessels. To create the Percoll gradient, 33% Percoll solution (8 mL Percoll, 14.4 mL phosphate buffered saline; PBS, 0.8 mL plasma derived serum; PDS, and 0.8 mL 10×PBS) was centrifuged at 20,300×g for 1 h, prior to this step. […]

T1 sequence (Q91ZX7 20-4545): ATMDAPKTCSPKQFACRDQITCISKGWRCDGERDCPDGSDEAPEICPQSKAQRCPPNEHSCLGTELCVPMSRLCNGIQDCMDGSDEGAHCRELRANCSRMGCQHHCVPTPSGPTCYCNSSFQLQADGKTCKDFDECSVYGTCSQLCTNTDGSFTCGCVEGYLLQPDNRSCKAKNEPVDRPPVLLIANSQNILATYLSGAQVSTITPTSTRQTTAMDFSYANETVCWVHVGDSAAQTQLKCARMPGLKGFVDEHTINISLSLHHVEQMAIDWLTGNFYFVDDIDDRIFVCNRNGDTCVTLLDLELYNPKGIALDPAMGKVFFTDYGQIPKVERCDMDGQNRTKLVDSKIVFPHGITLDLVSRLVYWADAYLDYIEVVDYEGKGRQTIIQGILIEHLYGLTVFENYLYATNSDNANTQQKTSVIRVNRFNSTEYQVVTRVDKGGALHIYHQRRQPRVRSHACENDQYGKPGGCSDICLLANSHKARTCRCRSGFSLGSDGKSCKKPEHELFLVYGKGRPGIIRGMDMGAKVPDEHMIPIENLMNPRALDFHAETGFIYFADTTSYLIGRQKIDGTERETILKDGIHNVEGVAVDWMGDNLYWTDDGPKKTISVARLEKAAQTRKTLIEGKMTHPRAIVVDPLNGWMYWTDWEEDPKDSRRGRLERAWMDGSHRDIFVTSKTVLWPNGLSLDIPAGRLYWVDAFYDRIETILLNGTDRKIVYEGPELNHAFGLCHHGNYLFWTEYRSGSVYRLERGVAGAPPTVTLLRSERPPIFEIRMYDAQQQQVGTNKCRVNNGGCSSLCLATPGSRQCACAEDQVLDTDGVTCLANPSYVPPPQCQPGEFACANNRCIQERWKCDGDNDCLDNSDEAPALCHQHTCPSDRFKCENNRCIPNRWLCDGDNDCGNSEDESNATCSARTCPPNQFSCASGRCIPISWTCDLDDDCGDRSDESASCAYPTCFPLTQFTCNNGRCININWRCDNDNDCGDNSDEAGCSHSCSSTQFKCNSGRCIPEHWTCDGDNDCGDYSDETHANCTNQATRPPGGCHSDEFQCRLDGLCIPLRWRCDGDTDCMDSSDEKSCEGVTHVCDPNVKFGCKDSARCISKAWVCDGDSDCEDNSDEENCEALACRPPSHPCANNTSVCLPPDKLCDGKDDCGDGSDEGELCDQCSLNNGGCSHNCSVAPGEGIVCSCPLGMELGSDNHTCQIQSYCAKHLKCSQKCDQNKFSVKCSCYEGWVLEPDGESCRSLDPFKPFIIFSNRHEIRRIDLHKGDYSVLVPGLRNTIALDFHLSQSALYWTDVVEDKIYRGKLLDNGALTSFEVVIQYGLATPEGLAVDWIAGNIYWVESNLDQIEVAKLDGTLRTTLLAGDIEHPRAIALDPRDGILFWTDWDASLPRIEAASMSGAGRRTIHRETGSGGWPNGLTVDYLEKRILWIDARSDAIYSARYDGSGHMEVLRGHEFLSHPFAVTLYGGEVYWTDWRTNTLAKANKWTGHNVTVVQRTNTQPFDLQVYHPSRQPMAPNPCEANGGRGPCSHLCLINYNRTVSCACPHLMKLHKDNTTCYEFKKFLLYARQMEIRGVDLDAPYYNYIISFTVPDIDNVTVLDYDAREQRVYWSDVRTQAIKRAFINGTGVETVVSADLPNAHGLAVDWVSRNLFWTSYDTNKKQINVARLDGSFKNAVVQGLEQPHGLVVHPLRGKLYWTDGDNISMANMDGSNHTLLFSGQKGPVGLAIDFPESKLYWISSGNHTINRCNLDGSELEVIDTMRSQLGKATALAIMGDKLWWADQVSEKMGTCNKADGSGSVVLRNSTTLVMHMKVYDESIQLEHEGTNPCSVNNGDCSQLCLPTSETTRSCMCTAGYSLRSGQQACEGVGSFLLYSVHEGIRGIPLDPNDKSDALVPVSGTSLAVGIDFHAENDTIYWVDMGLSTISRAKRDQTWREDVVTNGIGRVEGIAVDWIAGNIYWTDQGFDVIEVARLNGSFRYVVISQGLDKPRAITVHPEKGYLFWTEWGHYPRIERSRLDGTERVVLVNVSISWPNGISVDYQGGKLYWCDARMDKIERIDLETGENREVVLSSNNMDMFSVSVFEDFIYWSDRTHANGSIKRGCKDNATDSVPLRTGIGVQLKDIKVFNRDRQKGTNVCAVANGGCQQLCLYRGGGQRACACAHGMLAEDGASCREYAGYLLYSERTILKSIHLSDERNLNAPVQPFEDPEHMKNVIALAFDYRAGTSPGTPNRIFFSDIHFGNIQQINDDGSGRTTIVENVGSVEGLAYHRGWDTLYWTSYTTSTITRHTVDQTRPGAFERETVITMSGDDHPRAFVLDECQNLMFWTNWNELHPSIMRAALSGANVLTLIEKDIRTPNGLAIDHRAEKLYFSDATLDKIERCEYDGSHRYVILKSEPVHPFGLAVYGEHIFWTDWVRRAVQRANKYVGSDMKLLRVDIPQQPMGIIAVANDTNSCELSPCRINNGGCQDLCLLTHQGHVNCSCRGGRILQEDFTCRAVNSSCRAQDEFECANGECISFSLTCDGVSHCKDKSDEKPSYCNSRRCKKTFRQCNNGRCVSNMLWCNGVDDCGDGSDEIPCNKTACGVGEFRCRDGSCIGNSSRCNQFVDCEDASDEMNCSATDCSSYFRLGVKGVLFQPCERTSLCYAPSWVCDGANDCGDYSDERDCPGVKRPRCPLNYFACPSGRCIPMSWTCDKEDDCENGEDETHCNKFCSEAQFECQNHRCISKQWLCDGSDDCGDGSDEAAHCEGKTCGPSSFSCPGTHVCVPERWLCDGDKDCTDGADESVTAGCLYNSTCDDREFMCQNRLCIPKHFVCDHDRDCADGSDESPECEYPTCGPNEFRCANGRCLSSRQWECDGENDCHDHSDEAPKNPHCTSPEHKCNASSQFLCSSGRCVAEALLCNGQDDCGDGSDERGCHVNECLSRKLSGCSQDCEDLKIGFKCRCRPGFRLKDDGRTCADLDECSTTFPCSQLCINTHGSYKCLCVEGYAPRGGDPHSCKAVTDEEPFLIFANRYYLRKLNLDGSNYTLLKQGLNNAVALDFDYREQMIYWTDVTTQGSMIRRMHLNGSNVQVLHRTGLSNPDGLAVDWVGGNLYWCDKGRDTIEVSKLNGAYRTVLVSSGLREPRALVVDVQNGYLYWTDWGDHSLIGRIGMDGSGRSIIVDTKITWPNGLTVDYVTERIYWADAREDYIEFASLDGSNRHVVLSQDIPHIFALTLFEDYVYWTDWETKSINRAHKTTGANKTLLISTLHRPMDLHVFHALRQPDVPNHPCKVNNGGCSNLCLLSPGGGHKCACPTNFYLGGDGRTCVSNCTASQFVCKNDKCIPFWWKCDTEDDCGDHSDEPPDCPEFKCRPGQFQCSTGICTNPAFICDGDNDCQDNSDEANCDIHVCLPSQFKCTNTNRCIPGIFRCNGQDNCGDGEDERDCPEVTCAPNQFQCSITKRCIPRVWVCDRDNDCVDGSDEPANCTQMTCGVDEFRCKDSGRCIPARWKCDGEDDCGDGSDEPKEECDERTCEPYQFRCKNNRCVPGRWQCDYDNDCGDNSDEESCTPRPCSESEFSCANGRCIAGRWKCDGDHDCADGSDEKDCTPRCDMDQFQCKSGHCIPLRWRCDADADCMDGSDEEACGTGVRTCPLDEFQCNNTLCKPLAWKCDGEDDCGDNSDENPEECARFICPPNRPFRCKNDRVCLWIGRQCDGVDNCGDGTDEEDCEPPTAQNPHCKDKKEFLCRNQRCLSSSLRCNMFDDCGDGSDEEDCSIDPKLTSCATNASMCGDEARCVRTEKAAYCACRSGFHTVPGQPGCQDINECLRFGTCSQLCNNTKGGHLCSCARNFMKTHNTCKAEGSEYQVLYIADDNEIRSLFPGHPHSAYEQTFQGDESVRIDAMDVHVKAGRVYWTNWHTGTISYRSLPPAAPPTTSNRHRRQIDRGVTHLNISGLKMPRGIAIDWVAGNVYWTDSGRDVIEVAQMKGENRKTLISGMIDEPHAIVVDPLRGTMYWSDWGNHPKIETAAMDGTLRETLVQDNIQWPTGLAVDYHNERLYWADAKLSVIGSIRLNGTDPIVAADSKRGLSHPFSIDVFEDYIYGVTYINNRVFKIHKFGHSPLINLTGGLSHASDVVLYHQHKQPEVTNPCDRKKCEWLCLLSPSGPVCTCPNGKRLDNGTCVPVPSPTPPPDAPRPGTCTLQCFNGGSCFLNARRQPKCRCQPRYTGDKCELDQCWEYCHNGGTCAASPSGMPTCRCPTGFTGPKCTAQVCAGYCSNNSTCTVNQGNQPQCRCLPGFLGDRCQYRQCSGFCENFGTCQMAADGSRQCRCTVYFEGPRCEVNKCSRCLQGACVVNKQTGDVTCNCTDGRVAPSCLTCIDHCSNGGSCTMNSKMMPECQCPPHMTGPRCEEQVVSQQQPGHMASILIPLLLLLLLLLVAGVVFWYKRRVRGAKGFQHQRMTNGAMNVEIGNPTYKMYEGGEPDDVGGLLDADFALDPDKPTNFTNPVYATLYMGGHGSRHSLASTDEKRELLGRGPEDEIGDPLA
T2 sequence (P56480 47-529): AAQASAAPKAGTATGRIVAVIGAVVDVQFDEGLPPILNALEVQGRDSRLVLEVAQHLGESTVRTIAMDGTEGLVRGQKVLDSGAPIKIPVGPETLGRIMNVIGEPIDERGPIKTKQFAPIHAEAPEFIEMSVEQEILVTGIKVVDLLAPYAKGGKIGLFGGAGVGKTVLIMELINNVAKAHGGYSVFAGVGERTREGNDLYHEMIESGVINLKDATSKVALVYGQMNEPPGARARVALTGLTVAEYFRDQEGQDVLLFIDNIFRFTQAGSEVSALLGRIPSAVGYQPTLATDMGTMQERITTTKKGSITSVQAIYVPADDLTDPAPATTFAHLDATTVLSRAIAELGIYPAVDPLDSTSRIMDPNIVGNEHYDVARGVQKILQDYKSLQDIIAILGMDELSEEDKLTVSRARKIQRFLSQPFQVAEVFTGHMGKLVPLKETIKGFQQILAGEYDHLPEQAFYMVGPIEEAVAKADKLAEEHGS

Substance | uptake of I-PACAP27 delivered by brain perfusion [3] | brain efflux of I-Aβ42 (specificity experiment) [4] | further results
5′-(_P═S)GAGAAGGTTGTGTGATCTTCA (antisense dG*dA*dG*dA*dA*dG*dG*dT*dT*dG*dT*dG*dT*dG*dA*dT*dC*dT*dT*dC*dA; listed as Mus musculus) [random antisense] | – | – | mean fluorescent intensity (LRP-1 immunofluorescence) [1]: 111.14%; time spent investigating the novel object [2]: spent a majority of their time investigating the new object
5′-(_P═S)GGCGCCTTTGTTCGAACCCACATCTTCAGCAAAGAACACCAG-3′ (antisense dG*dG*dC*dG*dC*dC*dT*dT*dT*dG*dT*dT*dC*dG*dA*dA*dC*dC*dC*dA*dC*dA*dT*dC*dT*dT*dC*dA*dG*dC*dA*dA*dA*dG*dA*dA*dC*dA*dC*dC*dA*dG; listed as Mus musculus) | no statistically significant effect | significant increase | –
5′-(_P═S)TCATGAAGCC-3′ (antisense dT*dC*dA*dT*dG*dA*dA*dG*dC*dC; listed as Mus musculus) | no statistically significant effect | significant increase | –
5′-GGACTAAATGCTTTCCTTTGTGACAG-3′ (listed as DNA, chemistry not given here; listed as Rattus norvegicus) [SEQ ID NO 16] | – | – | P-glycoprotein expression in the brain [5]: reduction of the rat P-glycoprotein expression
Aβ42: 42 amino acid murine amyloid beta (DAEFGHDSGFEVRHQKLVFFAEDVGSNKGAIIGLMVGGVVIA; Amyloid-beta protein 42; UniProt P12023 672-713, looked up) | – | – | abluminal-to-luminal transport of I-Aβ42 (saturability) [6]: significantly (p<0.01) inhibited
